Experiment [1] addresses T1, Cholinesterase (Homo sapiens, UniProt P06276). Put plainly: Inhibition of BChE (unknown origin) using butyryl thiocholine iodide as substrate after 30 mins by Ellman's method.
Experiment [2] concerns the target T2, Acetylcholinesterase (Homo sapiens, UniProt P22303). As to the kind of experiment: Inhibition of AChE (unknown origin) using acetyl thiocholine iodide as substrate after 30 mins by Ellman's method. A general note: In Ellman's method for cholinesterases, released thiocholine reacts with DTNB.
Experiment [3] has as its target T1, Cholinesterase. Put plainly: Inhibition of BChE (unknown origin) using butyryl thiocholine iodide as substrate at 0.25 mM after 30 mins by Ellman's method.
For experiment [4], the target named is T2, Acetylcholinesterase. As to the kind of experiment: Inhibition of AChE (unknown origin) using acetyl thiocholine iodide as substrate at 0.25 mM after 30 mins by Ellman's method.
The test system of experiment [5] is Staphylococcus aureus. Put plainly: Antibacterial activity against Staphylococcus aureus after 18 to 24 hrs by Micro-titer assay. It is filed as functional.
The subject of experiment [6] is Pseudomonas aeruginosa. As to the kind of experiment: Antibacterial activity against Pseudomonas aeruginosa after 18 to 24 hrs by Micro-titer assay. In kind it is functional.
The test system of experiment [7] is Escherichia coli. As to the kind of experiment: Antibacterial activity against Escherichia coli DH5[alpha] after 18 to 24 hrs by Micro-titer assay. It is filed as functional.
For experiment [8], the system named is Staphylococcus aureus. Put plainly: Antibacterial activity against Staphylococcus aureus at 1 mg/ml after 24 hrs by agar-well diffusion method. In kind it is functional. Conditions: read-out: IZ. In general terms: In agar diffusion tests the substance spreads into inoculated agar from a disc or well.
For experiment [9], the system named is Vibrio cholerae. Put plainly: Antibacterial activity against Vibrio cholerae at 1 mg/ml after 24 hrs by agar-well diffusion method. It is filed as functional, organism-based.
Experiment [10] relates to Salmonella typhi. As to the kind of experiment: Antibacterial activity against Salmonella typhi at 1 mg/ml after 24 hrs by agar-well diffusion method. In kind it is functional, organism-based. Conditions: Salmonella enterica subsp. enterica serovar Typhi.
Experiment [11] concerns Pseudomonas aeruginosa. Put plainly: Antibacterial activity against Pseudomonas aeruginosa at 1 mg/ml after 24 hrs by agar-well diffusion method. In kind it is functional. Conditions: for zone of inhibition at 1000 µg/mL: read-out: IZ.
The subject of experiment [12] is Escherichia coli. Put plainly: Antibacterial activity against Escherichia coli 5604 at 1 mg/ml after 24 hrs by agar-well diffusion method. In kind it is functional, organism-based.
In experiment [13] the test system is Escherichia coli. As to the kind of experiment: Antibacterial activity against Escherichia coli DG2 at 1 mg/ml after 24 hrs by agar-well diffusion method. It is filed as functional, organism-based.
Experiment [14] concerns Escherichia coli. Put plainly: Antibacterial activity against Escherichia coli DH5[alpha] at 1 mg/ml after 24 hrs by agar-well diffusion method. In kind it is functional. Conditions: read-out: IZ.
Experiment [15] concerns the target T2, Acetylcholinesterase. Put plainly: Inhibition of AChE (unknown origin) using acetyl thiocholine iodide as substrate at 0.125 mM after 30 mins by Ellman's method.
Experiment [16] deals with T1, Cholinesterase. Put plainly: Inhibition of BChE (unknown origin) using butyryl thiocholine iodide as substrate at 0.125 mM after 30 mins by Ellman's method.
In experiment [17] the target is T1, Cholinesterase. Put plainly: Inhibition of BChE (unknown origin) using butyryl thiocholine iodide as substrate at 0.5 mM after 30 mins by Ellman's method.
The target of experiment [18] is T2, Acetylcholinesterase. Put plainly: Inhibition of AChE (unknown origin) using acetyl thiocholine iodide as substrate at 0.5 mM after 30 mins by Ellman's method.

In general, inhibition refers to the relative decrease from the control value, in per cent. Broadly, the MIC is the lowest concentration found to suppress growth. Lower therefore signals greater potency.

In brackets after ≈: the same amount, converted by molar mass. Activity calls are given as the source filed them. No cut-off for these calls is given here.

T2 sequence (P22303 whole entry): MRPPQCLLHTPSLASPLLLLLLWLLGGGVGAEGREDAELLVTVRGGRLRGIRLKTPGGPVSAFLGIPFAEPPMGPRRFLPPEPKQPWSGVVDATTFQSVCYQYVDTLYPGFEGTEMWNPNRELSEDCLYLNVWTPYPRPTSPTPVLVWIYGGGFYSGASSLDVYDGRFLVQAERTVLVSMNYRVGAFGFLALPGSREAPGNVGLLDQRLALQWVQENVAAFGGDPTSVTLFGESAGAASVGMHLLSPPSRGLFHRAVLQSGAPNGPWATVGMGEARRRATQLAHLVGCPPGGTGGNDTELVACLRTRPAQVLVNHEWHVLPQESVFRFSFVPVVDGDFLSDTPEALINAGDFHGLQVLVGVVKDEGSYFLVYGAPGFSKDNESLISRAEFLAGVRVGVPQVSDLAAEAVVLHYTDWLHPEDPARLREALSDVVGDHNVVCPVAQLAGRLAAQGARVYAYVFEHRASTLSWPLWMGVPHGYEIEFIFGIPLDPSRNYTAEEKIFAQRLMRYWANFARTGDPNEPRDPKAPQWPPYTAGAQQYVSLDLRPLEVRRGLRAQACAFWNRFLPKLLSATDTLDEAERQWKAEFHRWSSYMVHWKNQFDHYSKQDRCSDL
T1 sequence (P06276 whole entry): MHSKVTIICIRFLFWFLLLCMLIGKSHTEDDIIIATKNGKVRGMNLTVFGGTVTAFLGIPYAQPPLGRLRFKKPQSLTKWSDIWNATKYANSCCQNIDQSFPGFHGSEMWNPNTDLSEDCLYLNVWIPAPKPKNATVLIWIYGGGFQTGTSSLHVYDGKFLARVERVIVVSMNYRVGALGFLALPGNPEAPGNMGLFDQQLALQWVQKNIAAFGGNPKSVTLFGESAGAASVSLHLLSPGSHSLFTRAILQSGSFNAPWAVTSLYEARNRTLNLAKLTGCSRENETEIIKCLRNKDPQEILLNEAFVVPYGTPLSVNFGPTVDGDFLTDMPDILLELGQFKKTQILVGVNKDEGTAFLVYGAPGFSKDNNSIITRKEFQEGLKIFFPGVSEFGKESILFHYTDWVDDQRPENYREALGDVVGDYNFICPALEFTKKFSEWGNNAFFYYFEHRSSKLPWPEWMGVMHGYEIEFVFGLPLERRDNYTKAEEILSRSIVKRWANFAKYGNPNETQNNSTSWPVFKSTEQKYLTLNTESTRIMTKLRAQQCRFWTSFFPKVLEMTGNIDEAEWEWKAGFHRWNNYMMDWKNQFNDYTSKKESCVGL

As to `CC(=O)NC=C1C(=O)NC(=O)NC1=O`, the IC50 turned out to be 116.61 µmol in [1] and 90.91 µmol in experiment [2]. In addition, the inhibition in [3] worked out at 88.3%; in [4], 77.7%. Further, the MIC in [5] came out at 100 µg/mL (≈ 507 µM); in experiment [6], 200 µg/mL (≈ 1010 µM); in experiment [7] it was 100 µg/mL (≈ 507 µM). In addition, the zone of inhibition at 1000 µg/mL in [8] amounted to 18 mm; in [11], 18 mm; in experiment [14] it was 15 mm. Moreover, the “inhibition zone (IZ)” value in experiment [9], in [10], in experiment [12] and in experiment [13] was “inactive” in each case.

For the molecule `O=C1NC(=S)NC(=O)C1=CNNC(=S)Nc1ccc(Br)cc1`, the IC50 amounted to 68.41 µmol in experiment [1] and 79.21 µmol in experiment [2]. Moreover, the inhibition in experiment [3] came to 84.5%; in [4], 80.4%.

Regarding `COc1ccc(NC(=S)NNC=C2C(=O)NC(=S)NC2=O)cc1`, the IC50 in experiment [1] was 56.81 µmol; in experiment [2], 206.31 µmol. For the same molecule, the inhibition stood at 85.4% in experiment [3] and 59.1% in experiment [4].

As for `NC(=S)NNC=C1C(=O)NC(=O)NC1=O`, the IC50 in [1] came to 56.51 µmol; in experiment [2], 119.11 µmol. Besides, the inhibition was 87.5% in experiment [3] and 65.8% in experiment [4].

For the molecule `O=C1NC(=S)NC(=O)C1=CNNC(=S)Nc1ccc(Cl)cc1`, the IC50 amounted to 75.41 µmol in experiment [1] and 121.11 µmol in experiment [2]. The results for the inhibition in experiment [3] and in experiment [4] were 81.6% and 62%, respectively. Further, the MIC in experiment [5] was determined as 100 µg/mL (≈ 281 µM); in experiment [6], 400 µg/mL (≈ 1120 µM); in [7], 200 µg/mL (≈ 562 µM). In addition, the zone of inhibition at 1000 µg/mL in experiment [8] was 15 mm; in [14], 14 mm. Besides, the “inhibition zone (IZ)” value in [9], in experiment [10], in experiment [11], in experiment [12] and in experiment [13] was “inactive” in each case.

For `N#Cc1ccc(NC(=S)NNC=C2C(=O)NC(=O)NC2=O)cc1`, the IC50 in experiment [1] worked out at 231.61 µmol. Also, the values for the inhibition in experiment [3] and in experiment [4] were 66.8% and 11.4%, respectively.

Consider `O=C1NC(=S)NC(=O)C1=CNNC(=S)Nc1ccc(C(F)(F)F)cc1`, for which the IC50 came to 8.11 µmol in [1] and 99.41 µmol in experiment [2]. Also, the inhibition worked out at 78.2% in experiment [3] and 75.6% in experiment [4].

Consider `O=C1NC(=S)NC(=O)C1=CNNC(=S)Nc1ccc(F)cc1`, for which the IC50 in experiment [1] is 57.81 µmol; in [2], 78.41 µmol. The inhibition in [3] came to 88.8%; in experiment [4] it was 86.9%.

For the molecule `O=C1NC(=O)C(=CNNC(=O)Nc2ccccc2)C(=O)N1`, the inhibition in experiment [15] came out at 39.6%; in experiment [16], 79.2%. This molecule also yielded an IC50 in experiment [1] of 38.51 µmol.

Turning to `O=C1NC(=S)NC(=O)C1=CNNC(=S)Nc1ccccc1`, the IC50 was found to be 57.11 µmol in experiment [1] and 115.11 µmol in [2]. For the same molecule, the inhibition in experiment [3] was found to be 83.2%; in experiment [4], 73.2%.

As for `O=C(NNC=C1C(=O)NC(=S)NC1=O)Nc1ccccc1`, the inhibition stood at 66.8% in experiment [15] and 85.1% in experiment [16]. Also, the IC50 in experiment [1] amounted to 3.31 µmol; in [2], 74.21 µmol.

For the molecule `O=C(N[C@H](CO)[C@H](O)c1ccc([N+](=O)[O-])cc1)C(Cl)Cl` [CHLORAMPHENICOL], the MIC is < 0.78 µg/mL in [5], 1.56 µg/mL (≈ 4.83 µM) in experiment [6] and 1.56 µg/mL (≈ 4.83 µM) in experiment [7]. Moreover, the zone of inhibition at 1000 µg/mL in experiment [8], in [11] and in [14] was 25 mm each time. Moreover, the “inhibition zone (IZ)” value in [9], in experiment [10], in [12] and in experiment [13] was “inactive” in each case.

In the case of `O=C1NC(=O)C(=CNNC(=S)Nc2cccc(C(F)(F)F)c2)C(=O)N1`, the IC50 in experiment [1] is 136.91 µmol; in experiment [2], 40.78 µmol. In addition, the inhibition was determined as 75.9% in experiment [17] and 83.3% in experiment [18].

As for `Cc1cccc(Cl)c1NC(=S)NNC=C1C(=O)NC(=O)NC1=O`, the IC50 in [1] was 8.81 µmol. The inhibition is 75.8% in experiment [17] and 49.4% in experiment [18].

Consider `CNC(=O)Oc1ccc2c(c1)[C@]1(C)CCN(C)[C@@H]1N2C`, for which the inhibition in experiment [3] and in experiment [4] was 92.5% throughout.

The record behind these values is ChEMBL document CHEMBL2424571, “Synthesis, molecular docking studies, and in vitro screening of barbiturates/thiobarbiturates as antibacterial and cholinesterase inhibitors” (Med Chem Res, 2013).
